Assay results taken from patent US10723741B1, “DNA polymerase IIIC inhibitors and use thereof” (Acurx Pharmaceuticals, LLC, priority 2018, dated 2020).
Converted amounts (≈) assume the structure as drawn. Like-named read-outs stand apart in the source and are kept apart here. One block for each compound: values may come before it.

How the values were obtained:
Assay type in all cases: cell-based
[1] = system: Staphylococcus aureus NRS384 (MRSA); assay: Broth microdilution MIC, S. aureus NRS384 (MRSA); conditions: Staphylococcus aureus, broth microdilution, 37° C., 20 hours
Outline: (§1)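 Broth microdilution in strain-specific test medium with ~5.0×10^5 cfu/ml inoculum, 1% DMSO and two-fold compound dilutions from 64 to 0.0625 μg/ml. Plates were held 20 hours at 37° C in ambient air. S. pneumoniae colonies were grown beforehand on blood agar in 5% CO2.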

[2] = system: Staphylococcus aureus ATCC 29213 (MSSA); assay: Broth microdilution MIC, S. aureus ATCC 29213 (MSSA); conditions: broth microdilution, 37° C., 20 hours, read-out: MIC S. aureus ATCC 29213 (MSSA)
Outline: as §1

[3] = system: Enterococcus faecalis ATCC 29212; assay: Broth microdilution MIC, E. faecalis ATCC 29212; conditions: ATCC29212, broth microdilution, 37° C., 20 hours, read-out: MIC E. faecalis ATCC 29212
Outline: as §1

[4] = system: Enterococcus faecium ATCC 700221 (VRE); assay: Broth microdilution MIC, E. faecium ATCC 700221 (VRE); conditions: Enterococcus faecium, broth microdilution, 37° C., 20 hours
Outline: as §1

[5] = system: Streptococcus pneumoniae ATCC 49619; assay: Broth microdilution MIC, S. pneumoniae ATCC 49619; conditions: ATCC49619, broth microdilution, 37° C., 20 hours, read-out: MIC S. pneumoniae ATCC 49619
Outline: as §1

[6] = system: Bacillus subtilis ATCC 6633; assay: Broth microdilution MIC, B. subtilis ATCC 6633; conditions: ATCC6633, broth microdilution, 37° C., 20 hours, read-out: MIC B. subtilis ATCC 6633
Outline: as §1

[7] = system: Escherichia coli ATCC 25922; assay: Broth microdilution MIC, E. coli ATCC 25922 (MHIIB w & w/o 4 mM EDTA); conditions: broth microdilution, 37° C., 20 hours; for MIC: Escherichia coli, ATCC25922, without EDTA, read-out: MIC E. coli ATCC 25922; for MIC E. coli ATCC 25922 + 4 mM EDTA: with 4 mM EDTA
Outline: as §1

[8] = read-out: MIC E. faecium ATCC 700221 (VRE)

Compound: O=c1[nH]c(NCc2ccc(Cl)c(Cl)c2)nc2cnn(CCOC3CCS(=O)(=O)CC3)c12 [Compound 188, 5-((3,4-dichlorobenzyl)amino)-1-(2-((1,1-dioxidotetrahydro-2H-thiopyran-4-yl)oxy)ethyl)-1H-pyrazolo[4,3-d]pyrimidin-7(6H)-one]
- MIC ([1]; read-out: MIC NRS 384 (MRSA)): 16 µg/mL (≈ 32.9 µM)
- MIC [2]: 16 µg/mL (≈ 32.9 µM)
- MIC [3]: 8 µg/mL (≈ 16.4 µM)
- MIC [4, 8]: 4 µg/mL (≈ 8.22 µM)
- MIC [5]: 8 µg/mL (≈ 16.4 µM)
- MIC [6]: 4 µg/mL (≈ 8.22 µM)
- MIC [7]: > 64 µg/mL
- MIC E. coli ATCC 25922 + 4 mM EDTA [7]: >64 µg/mL

Compound: O=c1c2c(cnn2CCOCCO)nc(NCc2ccc(Cl)c(Cl)c2)n1COP(=O)(O)O [Compound 320, (5-((3,4-dichlorobenzyl)amino)-1-(2-(2-hydroxyethoxy)ethyl)-7-oxo-1H-pyrazolo[4,3-d]pyrimidin-6(7H)-yl)methyl dihydrogen phosphate]
- MIC ([1]; S. aureus NRS 384, read-out: MIC NRS 384 (MRSA)): > 64 µg/mL
- MIC [2]: > 64 µg/mL
- MIC [3]: > 64 µg/mL
- MIC [4, 8]: > 64 µg/mL
- MIC [5]: > 64 µg/mL
- MIC [6]: > 64 µg/mL
- MIC [7]: > 64 µg/mL
- MIC E. coli ATCC 25922 + 4 mM EDTA [7]: >64 µg/mL

Compound: O=c1[nH]c(NCc2ccc(Cl)c(Cl)c2)nc2cnn(CCN3CCS(=O)(=O)CC3)c12 [Compound 59, 5-((3,4-Dichlorobenzyl)amino)-1-(2-(1,1-dioxidothiomorpholino)ethyl)-1H-pyrazolo[4,3-d]pyrimidin-7(6H)-one]
- MIC ([1]; read-out: MIC NRS 384 (MRSA)): 8 µg/mL (≈ 17 µM)
- MIC [2]: 8 µg/mL (≈ 17 µM)
- MIC [3]: 8 µg/mL (≈ 17 µM)
- MIC [4, 8]: 2 µg/mL (≈ 4.24 µM)
- MIC [5]: 4 µg/mL (≈ 8.49 µM)
- MIC [6]: 4 µg/mL (≈ 8.49 µM)
- MIC [7]: > 64 µg/mL
- MIC E. coli ATCC 25922 + 4 mM EDTA [7]: >64 µg/mL

Compound: O=C(CCCCn1ncc2nc(NCc3ccc(Cl)c(Cl)c3)[nH]c(=O)c21)NO [Compound 217, 5-[5-[(3,4-dichlorophenyl)methylamino]-7-oxo-6H-pyrazolo[4,3-d]pyrimidin-1-yl]pentanehydroxamic acid]
- MIC ([1]; read-out: MIC NRS 384 (MRSA)): 32 µg/mL (≈ 75.2 µM)
- MIC [2]: 32 µg/mL (≈ 75.2 µM)
- MIC [3]: 16 µg/mL (≈ 37.6 µM)
- MIC [4, 8]: 16 µg/mL (≈ 37.6 µM)
- MIC [5]: 4 µg/mL (≈ 9.41 µM)
- MIC [6]: 8 µg/mL (≈ 18.8 µM)
- MIC [7]: > 64 µg/mL
- MIC E. coli ATCC 25922 + 4 mM EDTA [7]: >64 µg/mL

Compound: CC(C)(C)OC(=O)N1CCC(CN2CCC(n3ncc4nc(NCc5ccc(Cl)c(Cl)c5)[nH]c(=O)c43)CC2)CC1 [Compound 248, tert-Butyl 4-((4-(5-((3,4-dichlorobenzyl)amino)-7-oxo-6,7-dihydro-1H-pyrazolo[4,3-d]pyrimidin-1-yl)piperidin-1-yl)methyl)piperidine-1-carboxylate2,2,2-trifluoroacetate]
- MIC ([1]; read-out: MIC NRS 384 (MRSA)): 16 µg/mL (≈ 27.1 µM)
- MIC [2]: 16 µg/mL (≈ 27.1 µM)
- MIC [3]: 4 µg/mL (≈ 6.77 µM)
- MIC [4, 8]: 4 µg/mL (≈ 6.77 µM)
- MIC [5]: 8 µg/mL (≈ 13.5 µM)
- MIC [6]: 4 µg/mL (≈ 6.77 µM)
- MIC [7]: > 64 µg/mL
- MIC E. coli ATCC 25922 + 4 mM EDTA [7]: 8 µg/mL

Compound: Cl.O=c1[nH]c(NCc2ccc(Cl)c(Cl)c2)nc2cnn(CCN3CCOCC3)c12 [Compound 57, 5-((3,4-dichlorobenzyl)amino)-1-(2-morpholinoethyl)-1H-pyrazolo[4,3-d]pyrimidin-7(6H)-one hydrochloride]
- MIC ([1]; read-out: MIC NRS 384 (MRSA)): 2 µg/mL
- MIC [2]: 2 µg/mL
- MIC [3]: 4 µg/mL
- MIC [4, 8]: 1 µg/mL
- MIC [5]: 2 µg/mL
- MIC [6]: 1 µg/mL
- MIC [7]: > 64 µg/mL
- MIC E. coli ATCC 25922 + 4 mM EDTA [7]: >64 µg/mL

Compound: CC(=O)OCCCCn1ncc2nc(NCc3ccc(Cl)c(Cl)c3)[nH]c(=O)c21 [Compound 90, 4-(5-((3,4-Dichlorobenzyl)amino)-7-oxo-6,7-dihydro-1H-pyrazolo[4,3-d]pyrimidin-1-yl)butyl acetate]
- MIC ([1]; read-out: MIC NRS 384 (MRSA)): 1 µg/mL
- MIC ([1]; MHIIB, read-out: MIC against S. aureus NRS 384 (MRSA)): ≤ 1 µg/mL
- MIC [2]: 2 µg/mL
- MIC [3]: 2 µg/mL
- MIC [4, 8]: 1 µg/mL
- MIC ([4]; MHIIB, read-out: MIC against E. faecium ATCC 700221 (VRE)): ≤ 1 µg/mL
- MIC [5]: 2 µg/mL
- MIC [6]: 0.5 µg/mL
- MIC [7]: > 64 µg/mL
- MIC E. coli ATCC 25922 + 4 mM EDTA [7]: >64 µg/mL

Compound: O=c1[nH]c(NCc2ccc(Cl)c(Cl)c2)nc2cnn(CC3CCOC3)c12 (stereo not drawn) [Compound 120, 5-((3,4-Dichlorobenzyl)amino)-1-((tetrahydrofuran-3-yl)methyl)-1H-pyrazolo[4,3-d]pyrimidin-7(6H)-one]
- MIC ([1]; read-out: MIC NRS 384 (MRSA)): 2 µg/mL (≈ 5.07 µM)
- MIC [2]: 2 µg/mL (≈ 5.07 µM)
- MIC [3]: 4 µg/mL (≈ 10.1 µM)
- MIC [4, 8]: 2 µg/mL (≈ 5.07 µM)
- MIC [5]: 4 µg/mL (≈ 10.1 µM)
- MIC [6]: 1 µg/mL (≈ 2.54 µM)
- MIC [7]: > 64 µg/mL
- MIC E. coli ATCC 25922 + 4 mM EDTA [7]: >64 µg/mL

Next, values leading:

- MIC ([1]; read-out: MIC NRS 384 (MRSA)): 2 µg/mL (≈ 5.05 µM)
- MIC [2]: 4 µg/mL (≈ 10.1 µM)
- MIC [3]: 4 µg/mL (≈ 10.1 µM)
- MIC [4, 8]: 2 µg/mL (≈ 5.05 µM)
- MIC [5]: 4 µg/mL (≈ 10.1 µM)
- MIC [6]: 1 µg/mL (≈ 2.52 µM)
- MIC [7]: > 64 µg/mL
- MIC E. coli ATCC 25922 + 4 mM EDTA [7]: >64 µg/mL
Compound: COC(=O)CCn1ncc2nc(NCc3ccc(Cl)c(Cl)c3)[nH]c(=O)c21 [Compound 231, Methyl 3-(5-((3,4-dichlorobenzyl)amino)-7-oxo-6,7-dihydro-1H-pyrazolo[4,3-d]pyrimidin-1-yl)propanoate]

- MIC ([1]; read-out: MIC NRS 384 (MRSA)): 8 µg/mL (≈ 20.2 µM)
- MIC [2]: 8 µg/mL (≈ 20.2 µM)
- MIC [3]: 16 µg/mL (≈ 40.4 µM)
- MIC [4, 8]: 4 µg/mL (≈ 10.1 µM)
- MIC [5]: 16 µg/mL (≈ 40.4 µM)
- MIC [6]: 4 µg/mL (≈ 10.1 µM)
- MIC [7]: > 64 µg/mL
- MIC E. coli ATCC 25922 + 4 mM EDTA [7]: 32 µg/mL
Compound: COC(=O)C(C)n1ncc2nc(NCc3ccc(Cl)c(Cl)c3)[nH]c(=O)c21 (stereo not drawn) [Compound 227, Methyl 2-(5-((3,4-dichlorobenzyl)amino)-7-oxo-6,7-dihydro-1H-pyrazolo[4,3-d]pyrimidin-1-yl)propanoate]

- MIC ([1]; read-out: MIC NRS 384 (MRSA)): 64 µg/mL (≈ 174 µM)
- MIC [2]: 64 µg/mL (≈ 174 µM)
- MIC [3]: 64 µg/mL (≈ 174 µM)
- MIC [4, 8]: 32 µg/mL (≈ 86.9 µM)
- MIC [5]: 16 µg/mL (≈ 43.5 µM)
- MIC [6]: 32 µg/mL (≈ 86.9 µM)
- MIC [7]: > 64 µg/mL
- MIC E. coli ATCC 25922 + 4 mM EDTA [7]: >64 µg/mL
Compound: CC(CO)n1cc2nc(NCc3ccc(Cl)c(Cl)c3)[nH]c(=O)c2n1 (stereo not drawn) [Compound 225, 5-((3,4-dichlorobenzyl)amino)-2-(1-hydroxypropan-2-yl)-2H-pyrazolo[4,3-d]pyrimidin-7(6H)-one]

- MIC ([1]; read-out: MIC NRS 384 (MRSA)): 4 µg/mL (≈ 10.2 µM)
- MIC [2]: 4 µg/mL (≈ 10.2 µM)
- MIC [3]: 16 µg/mL (≈ 40.9 µM)
- MIC [4, 8]: 2 µg/mL (≈ 5.11 µM)
- MIC [5]: 8 µg/mL (≈ 20.4 µM)
- MIC [6]: 2 µg/mL (≈ 5.11 µM)
- MIC [7]: > 64 µg/mL
- MIC E. coli ATCC 25922 + 4 mM EDTA [7]: >64 µg/mL
Compound: O=c1[nH]c(NCc2ccc(Cl)c(Cl)c2)nc2cnn(Cc3ncco3)c12 [Compound 144, 5-((3,4-Dichlorobenzyl)amino)-1-(oxazol-2-ylmethyl)-1H-pyrazolo[4,3-d]pyrimidin-7(6H)-one]

- MIC ([1]; read-out: MIC NRS 384 (MRSA)): 16 µg/mL (≈ 39 µM)
- MIC [2]: 32 µg/mL (≈ 78 µM)
- MIC [3]: 16 µg/mL (≈ 39 µM)
- MIC [4, 8]: 4 µg/mL (≈ 9.75 µM)
- MIC [5]: 4 µg/mL (≈ 9.75 µM)
- MIC [6]: 32 µg/mL (≈ 78 µM)
- MIC [7]: > 64 µg/mL
- MIC E. coli ATCC 25922 + 4 mM EDTA [7]: >64 µg/mL
Compound: O=C(O)CCCCn1ncc2nc(NCc3ccc(Cl)c(Cl)c3)[nH]c(=O)c21 [Compound 219, 5-[5-[(3,4-dichlorophenyl)methylamino]-7-oxo-6H-pyrazolo[4,3-d]pyrimidin-1-yl]pentanoic Acid]

- MIC ([1]; read-out: MIC NRS 384 (MRSA)): 64 µg/mL (≈ 174 µM)
- MIC [2]: 64 µg/mL (≈ 174 µM)
- MIC [3]: 32 µg/mL (≈ 87.1 µM)
- MIC [4, 8]: 16 µg/mL (≈ 43.6 µM)
- MIC [5]: 16 µg/mL (≈ 43.6 µM)
- MIC [6]: 8 µg/mL (≈ 21.8 µM)
- MIC [7]: > 64 µg/mL
- MIC E. coli ATCC 25922 + 4 mM EDTA [7]: >64 µg/mL
Compound: CNCCn1ncc2nc(NCc3ccc(Cl)c(Cl)c3)[nH]c(=O)c21 [Compound 61, 5-((3,4-Dichlorobenzyl)amino)-1-(2-(methylamino)ethyl)-1H-pyrazolo[4,3-d]pyrimidin-7(6H)-one]
